Active and inactive are the calls of the source.
Columns and labels:
Escherichia coli [1] = assay: microbe, parasite or virus in culture
Escherichia coli [2] = assay: microbe, parasite or virus in culture; remark: listed apart in the source
[3] = inhibitors of firefly luciferase expression or activity, dose response, H4 neuroglioma cells, luminescence (AID 1990); assay type: functional, cell-based
[4] = Luminescence Cell-Based Dose Response HTS to Identify Inhibitors of 5'UTR Stem-Loop Driven Prion Protein mRNA Translation in H4 Neuroglioblastoma Cells. [Related pubchem assays: 1827 (Project Summary), 1813 (Primary HTS)]; assay type: functional
[5] = inhibitors of SNCA 5'UTR-driven reporter translation, confirmation, H4 neuroglioma cells, luminescence (AID 1988); assay type: functional, cell-based
[6] = Luminescence Cell-Based Dose Retest to Confirm Inhibitors of Cancer Stem Cells. [Related pubchem assays (depositor defined):AID2717, AID2721]; assay type: functional; conditions: Homo sapiens
Vero [7] = assay: cells; assay type: functional, cell-based; conditions: Chlorocebus sabaeus
Vero [8] = assay: cells; assay type: functional; conditions: Chlorocebus sabaeus
CAAX prenyl protease 2 [9] = molecular target: T1, CAAX prenyl protease 2 (Saccharomyces cerevisiae S288c, UniProt Q03530); assay type: biochemical
T1 sequence (Q03530 whole entry): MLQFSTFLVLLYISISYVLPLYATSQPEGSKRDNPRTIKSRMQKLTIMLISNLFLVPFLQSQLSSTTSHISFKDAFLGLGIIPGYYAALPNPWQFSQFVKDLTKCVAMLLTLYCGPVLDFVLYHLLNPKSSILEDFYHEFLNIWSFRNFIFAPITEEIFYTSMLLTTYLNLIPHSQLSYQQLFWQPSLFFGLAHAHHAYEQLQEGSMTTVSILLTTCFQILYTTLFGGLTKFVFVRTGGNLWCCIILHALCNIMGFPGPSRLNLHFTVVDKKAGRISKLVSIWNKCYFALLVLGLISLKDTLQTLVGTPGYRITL

[10] = molecular target: FAD-linked sulfhydryl oxidase ALR (Homo sapiens, UniProt P55789); assay: inhibitors of human ALR sulfhydryl oxidase, dose response, biochemical, H2O2 detection, luminescence, cherry-pick (AID 493248)
Chain of FAD-linked sulfhydryl oxidase ALR (P55789 whole entry): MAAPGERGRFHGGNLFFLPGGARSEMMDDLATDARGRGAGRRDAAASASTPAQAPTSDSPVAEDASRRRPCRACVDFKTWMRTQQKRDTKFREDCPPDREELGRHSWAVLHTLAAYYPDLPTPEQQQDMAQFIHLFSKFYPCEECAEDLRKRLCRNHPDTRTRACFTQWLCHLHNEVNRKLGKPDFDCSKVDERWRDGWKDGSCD

CAAX prenyl protease 1 = CAAX prenyl protease 1 (Saccharomyces cerevisiae S288c, UniProt P47154); assay: Ste24 protease inhibitors, dose response, biochemical, S. cerevisiae, plate reader, cherry-pick (AID 488815)
Chain of CAAX prenyl protease 1 (P47154 whole entry): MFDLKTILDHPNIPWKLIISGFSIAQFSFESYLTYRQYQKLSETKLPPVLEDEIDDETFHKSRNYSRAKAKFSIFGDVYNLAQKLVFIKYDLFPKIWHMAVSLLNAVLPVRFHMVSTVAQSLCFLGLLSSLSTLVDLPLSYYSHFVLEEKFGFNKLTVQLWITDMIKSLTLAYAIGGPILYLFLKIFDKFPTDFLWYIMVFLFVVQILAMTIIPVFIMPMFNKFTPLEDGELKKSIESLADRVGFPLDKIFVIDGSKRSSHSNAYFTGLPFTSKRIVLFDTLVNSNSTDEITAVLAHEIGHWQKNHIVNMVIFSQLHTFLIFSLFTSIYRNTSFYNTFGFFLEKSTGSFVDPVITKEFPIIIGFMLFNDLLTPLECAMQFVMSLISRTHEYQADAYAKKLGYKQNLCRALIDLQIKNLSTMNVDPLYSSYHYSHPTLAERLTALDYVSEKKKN

CAAX prenyl protease 2 [11] = molecular target: CAAX prenyl protease 2 (Homo sapiens, UniProt Q9Y256); assay: human Rce1 protease inhibitors, dose response, biochemical, yeast membranes, quenched-peptide fluorescence, cherry-pick (AID 588849)
Chain of CAAX prenyl protease 2 (Homo sapiens, UniProt Q9Y256) (Q9Y256 whole entry): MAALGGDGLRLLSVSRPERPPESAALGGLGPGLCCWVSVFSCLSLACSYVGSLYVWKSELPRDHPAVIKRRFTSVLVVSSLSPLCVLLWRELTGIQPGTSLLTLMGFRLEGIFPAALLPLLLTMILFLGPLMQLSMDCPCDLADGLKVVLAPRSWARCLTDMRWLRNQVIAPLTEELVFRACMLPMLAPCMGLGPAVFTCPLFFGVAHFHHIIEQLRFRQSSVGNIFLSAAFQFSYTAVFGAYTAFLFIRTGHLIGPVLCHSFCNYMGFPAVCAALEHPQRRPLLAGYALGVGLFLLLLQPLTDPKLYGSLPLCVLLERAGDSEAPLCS

HEK293 = assay: cells; assay type: functional, cell-based; conditions: Homo sapiens
[12] = molecular target: T2, Nuclear receptor subfamily 0 group B member 1 (Homo sapiens, UniProt P51843); assay: Luminescence-based cell-based high throughput dose response assay for inhibitors of the orphan nuclear receptor subfamily 0, group B, member 1 (DAX1; NR0B1). [Related pubchem assays (depositor defined):AID504766, AID504790]; assay type: functional
T2 sequence (P51843 whole entry): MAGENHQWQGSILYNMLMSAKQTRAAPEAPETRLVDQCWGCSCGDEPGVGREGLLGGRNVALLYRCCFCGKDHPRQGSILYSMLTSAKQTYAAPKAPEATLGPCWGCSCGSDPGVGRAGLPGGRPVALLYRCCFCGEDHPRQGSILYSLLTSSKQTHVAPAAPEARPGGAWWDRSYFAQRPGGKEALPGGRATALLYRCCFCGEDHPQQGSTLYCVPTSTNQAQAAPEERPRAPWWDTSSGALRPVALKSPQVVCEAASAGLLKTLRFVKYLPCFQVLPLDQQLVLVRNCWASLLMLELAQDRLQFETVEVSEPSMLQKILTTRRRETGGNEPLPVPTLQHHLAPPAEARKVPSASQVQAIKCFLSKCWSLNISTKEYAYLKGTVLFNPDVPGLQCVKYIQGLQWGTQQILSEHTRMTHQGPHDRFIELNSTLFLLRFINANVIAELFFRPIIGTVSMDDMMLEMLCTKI

[13] = molecular target: T3, Short transient receptor potential channel 4 (Mus musculus, UniProt Q9QUQ5); assay: mouse TRPC4 channel activators, dose response, cell-based, HEK293 TRPC4/mu-opioid, Fluo-4 calcium (AID 434937); assay type: functional
T3 sequence (Q9QUQ5 whole entry): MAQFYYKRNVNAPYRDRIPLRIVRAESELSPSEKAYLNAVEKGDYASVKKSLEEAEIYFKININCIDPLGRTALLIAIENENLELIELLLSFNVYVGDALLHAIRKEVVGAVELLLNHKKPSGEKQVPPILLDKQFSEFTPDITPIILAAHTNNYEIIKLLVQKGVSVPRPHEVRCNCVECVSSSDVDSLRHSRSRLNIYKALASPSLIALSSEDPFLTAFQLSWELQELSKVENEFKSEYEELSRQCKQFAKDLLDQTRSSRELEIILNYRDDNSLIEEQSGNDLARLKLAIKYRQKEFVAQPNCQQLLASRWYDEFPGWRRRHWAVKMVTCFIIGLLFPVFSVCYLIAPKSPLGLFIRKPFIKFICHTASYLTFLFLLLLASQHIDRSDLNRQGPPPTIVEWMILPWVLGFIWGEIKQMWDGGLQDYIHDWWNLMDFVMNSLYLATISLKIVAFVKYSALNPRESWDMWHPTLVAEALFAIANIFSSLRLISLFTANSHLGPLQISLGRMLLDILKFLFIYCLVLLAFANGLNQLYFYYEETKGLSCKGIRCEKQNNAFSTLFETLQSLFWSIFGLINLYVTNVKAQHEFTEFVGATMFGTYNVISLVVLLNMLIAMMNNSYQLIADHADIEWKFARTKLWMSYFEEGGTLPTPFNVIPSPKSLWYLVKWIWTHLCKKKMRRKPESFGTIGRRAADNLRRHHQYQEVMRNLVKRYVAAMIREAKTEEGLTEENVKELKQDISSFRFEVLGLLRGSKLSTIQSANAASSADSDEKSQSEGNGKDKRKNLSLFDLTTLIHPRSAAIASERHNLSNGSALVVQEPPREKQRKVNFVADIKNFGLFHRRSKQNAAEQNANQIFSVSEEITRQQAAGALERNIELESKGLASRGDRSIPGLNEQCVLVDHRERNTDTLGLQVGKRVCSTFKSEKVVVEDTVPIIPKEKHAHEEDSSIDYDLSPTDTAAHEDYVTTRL

[14] = molecular target: Delta-type opioid receptor (Homo sapiens, UniProt P41143); assay: Counterscreen for agonists of heterodimerization of the mu 1 (OPRM1) and delta 1 (OPRD1) opioid receptors: Luminescence-based cell-based high throughput dose response assay to identify agonists of OPRD1 homodimerization. [Related pubchem assays (depositor defined):AID504326, AID504355, AID504692, AID504904, AID504905]; assay type: functional
Chain of Delta-type opioid receptor (P41143 whole entry): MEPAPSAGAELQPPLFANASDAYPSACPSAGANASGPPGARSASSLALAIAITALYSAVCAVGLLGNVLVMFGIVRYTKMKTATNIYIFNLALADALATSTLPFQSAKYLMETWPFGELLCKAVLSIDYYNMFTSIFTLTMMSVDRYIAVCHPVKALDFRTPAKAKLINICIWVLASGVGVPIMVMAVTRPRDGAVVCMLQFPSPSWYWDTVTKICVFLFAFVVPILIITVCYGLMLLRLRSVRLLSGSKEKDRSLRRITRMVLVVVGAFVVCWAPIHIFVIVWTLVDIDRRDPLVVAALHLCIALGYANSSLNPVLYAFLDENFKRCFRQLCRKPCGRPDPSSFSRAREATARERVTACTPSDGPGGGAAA

Mu-type opioid receptor = Mu-type opioid receptor (Homo sapiens, UniProt P35372); assay: Counterscreen for agonists of heterodimerization of the mu 1 (OPRM1) and delta 1 (OPRD1) opioid receptors: Luminescence-based cell-based high throughput dose response assay to identify agonists of OPRM1 homodimerization.; assay type: functional;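 also: U2OS cells expressing OPRM1 and beta-arrestin as split beta-galactosidase partners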
Chain of Mu-type opioid receptor (P35372 whole entry): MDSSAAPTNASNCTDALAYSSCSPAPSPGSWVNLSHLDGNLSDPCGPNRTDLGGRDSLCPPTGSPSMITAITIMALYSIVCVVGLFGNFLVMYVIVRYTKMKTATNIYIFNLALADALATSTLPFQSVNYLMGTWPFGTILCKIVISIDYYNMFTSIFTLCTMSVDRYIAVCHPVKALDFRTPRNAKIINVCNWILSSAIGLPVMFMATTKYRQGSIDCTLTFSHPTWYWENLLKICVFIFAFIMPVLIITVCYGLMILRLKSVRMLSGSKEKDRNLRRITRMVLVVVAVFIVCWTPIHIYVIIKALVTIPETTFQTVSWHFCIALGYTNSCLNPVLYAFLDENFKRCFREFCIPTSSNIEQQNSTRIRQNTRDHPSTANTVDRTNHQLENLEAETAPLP

[15] = molecular target: 5-hydroxytryptamine receptor 5A (Homo sapiens, UniProt P47898); assay: Counterscreen for agonists of OPRM1-OPRD1 heterodimerization: luminescence-based cell-based high throughput dose response assay to identify agonists of 5-hydroxytryptamine (serotonin) 5A receptor (HTR5A). [Related pubchem assays (depositor defined):AID504326, AID504355, AID504692, AID504904, AID504905]; assay type: functional
Chain of 5-hydroxytryptamine receptor 5A (P47898 whole entry): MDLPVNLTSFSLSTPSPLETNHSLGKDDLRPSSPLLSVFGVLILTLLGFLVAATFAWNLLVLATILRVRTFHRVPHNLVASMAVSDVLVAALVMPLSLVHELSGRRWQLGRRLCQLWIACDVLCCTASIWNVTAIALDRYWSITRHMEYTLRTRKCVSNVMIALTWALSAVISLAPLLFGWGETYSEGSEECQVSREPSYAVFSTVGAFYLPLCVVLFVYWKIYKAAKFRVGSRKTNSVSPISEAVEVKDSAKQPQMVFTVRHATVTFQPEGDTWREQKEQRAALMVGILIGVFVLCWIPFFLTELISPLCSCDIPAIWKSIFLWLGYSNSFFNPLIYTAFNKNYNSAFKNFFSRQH

SMILES: Cc1nc(NS(=O)(=O)c2ccccc2)sc1NC(=O)Nc1ccc(Cl)cc1
- AC50 (Escherichia coli [1]): 27 µM (active)
- AC50 (Escherichia coli [2]): > 380 µM (inactive)

SMILES: Cc1cccc(N/N=C(\C(N)=O)C2=NC(C)(C)Cc3ccccc32)c1
- EC50 [3]: 3.43 µM (active)
- EC50 [4]: 13.1 µM (active)
- EC50 [5]: 20.2 µM (active)
- AC50 [6]: 9.41 µM (active)
- IC50 (Vero [7]): > 25 µM (active)
- CC50 (Vero [8]): > 25 µM (active)

SMILES: COc1ccc(/C=N/NC(=O)c2[nH]c3ccc(C)cc3c2-c2ccccc2)c(C(=O)O)c1OC
- AC50 (CAAX prenyl protease 2 [9]): 5.21 µM (active)
- AC50 [10]: 3.71 µM (active)
- AC50 (CAAX prenyl protease 1): 1.76 µM (active)
- AC50 (CAAX prenyl protease 2 [11]): 3.14 µM (active)

SMILES: COc1cc(C(=O)NC2CCN(C)CC2)ccc1Nc1ncc2c(n1)N(Cc1ccccc1)CCC(=O)N2C
- IC50 (HEK293): > 67.5 µM (inactive)
- IC50 [12]: > 67.5 µM (inactive)

SMILES: COCC1CCN(Cc2cn(-c3ccccc3F)nc2-c2cc(C)sc2C)CC1
- EC50 [13]: 1.88 µM (active)
- EC50 [14]: > 92.5 µM (inactive)
- EC50 (Mu-type opioid receptor): > 92.5 µM (inactive)
- EC50 [15]: > 92.5 µM (inactive)
